Inconclusive results are not listed. The source made the active and inactive calls. The rule behind the calls is not given here.
Test system: Mycobacterium tuberculosis non-replicating, growth inhibition
Assay: growth inhibition of non-replicating M. tuberculosis (AID 488890)

SMILES	IC50
COc1cc(/C=N/NC(=O)c2ccccn2)ccc1OC(=O)c1cccs1	2.85 µM
COc1ccc(NCC(=O)N2CCCC2)cc1Cl	10.8 µM (inactive)
CCOC(=O)c1nn(-c2ccccc2)c2nc(Nc3ccccc3)cc(=O)n12	4.74 µM
CC(C)OC(=O)C(C)Oc1ccc(C(=O)NCCc2ccccc2)cc1 (centres undefined)	11.6 µM (inactive)
Cc1cccc(NC(=O)c2cc3ccccc3oc2=O)c1	10.5 µM (inactive)
Cc1ccc2c(c1)c(C1=c3ccccc3=NC1=O)c(O)n2C	4.42 µM
CC1(C)Oc2ccc(NC(=O)C3COc4ccccc4O3)cc2O1 (centres undefined)	12.9 µM (inactive)
COc1ccccc1N1CCN(C(=O)c2ccc([N+](=O)[O-])s2)CC1	5.97 µM
C/C(=N\NC(=O)c1ccco1)c1cc(Cl)sc1Cl	4.89 µM
O=C(OCC(=O)N1CCCc2ccccc21)c1ccc(S(=O)(=O)C(F)F)cc1	20.5 µM (inactive)
C=CCc1cc(Cl)ccc1OCCCn1ccnc1	8.18 µM
O=C(O)CCCCCN1C(=O)/C(=C\c2ccncc2)SC1=S	11.2 µM (inactive)
CCC(=O)Nc1nc2ccccc2n1Cc1ccccc1	4.86 µM
COc1ccc(C(=O)CC(=O)C(=O)NCCc2cccc(C)c2)cc1	4.42 µM
O=S1(=O)C=C(Sc2nc3cc(Cl)ccc3o2)c2ccccc21	0.3 µM
O=C(COc1ccc(Cl)cc1)OCC(=O)N1CCCc2ccccc21	12.9 µM (inactive)
CS(=O)(=O)Nc1cccc2cccnc12	21.4 µM (inactive)
Cn1nnnc1Sc1ncnc2scc(-c3ccc[nH]3)c12	8.43 µM
CCOC(=O)C1CCN(c2nc3cc(OC)ccc3cc2C#N)CC1	11.1 µM (inactive)
CCCCOC(=O)c1ccc(NC(=O)c2nn(C)cc2Br)cc1	20.4 µM (inactive)
CC1(c2nnc(Cc3ccccc3)o2)CC(c2ccccc2[N+](=O)[O-])=NO1 (centres undefined)	10.5 µM (inactive)
CC1=NN(C(=O)c2csc(C(C)C)c2)C(O)(C(F)(F)F)C1 (centres undefined)	0.36 µM
CSc1ccc(CNc2ncc(-c3cccc([N+](=O)[O-])c3)n2C)cc1	21.1 µM (inactive)

SMILES	IC50
C/C(O)=C\c1nc2ccccc2oc1=O	3.18 µM
Nc1nonc1C(=O)NCCN=Cc1cc(Cc2ccccc2)cc(Br)c1O	5.63 µM
Cc1noc(C)c1COc1ccc(C(=O)Nc2ccccn2)cc1	24.6 µM (inactive)
COc1cccc(OCc2nnc(-c3cccs3)o2)c1	1.57 µM
Cc1ccc(C(=O)N/N=C\c2ccc([N+](=O)[O-])s2)cn1	3.36 µM
O=C(COC(=O)c1cc(Br)ccc1O)Nc1ccc2c(c1)OCO2	7.79 µM
O=C(N[C@@H]1C[C@H]2CC[C@@H]1C2)c1ccco1	15.1 µM (inactive)
O=C(N/N=C\C=C\c1ccco1)c1cncc(Br)c1	34.4 µM (inactive)
COc1ccc(CCNc2nc(-c3ccccn3)cs2)cc1OC	8.4 µM
c1ccc(CSc2ccc(-c3ccccn3)nn2)cc1	8.02 µM
C=C1Cn2c(nnc2-c2ccc(Cl)cc2)S1	12.8 µM (inactive)
O=C(CN1CCN(c2ccccc2)CC1)Nc1nnc(-c2ccccc2)s1	9.53 µM
CC(=O)Oc1c(-c2ccco2)oc2ccccc2c1=O	10.6 µM (inactive)
CCOC(=O)N1CCC(NS(=O)(=O)c2cc3c(cc2Cl)NC(=O)CO3)CC1	4.67 µM
O=C(c1ccccc1)c1nc[nH]c1C(=O)Nc1ccccc1	11.5 µM (inactive)
COC(=O)[C@@H](NC(=O)c1cc(COc2cncc(Cl)c2)on1)c1ccccc1	5.58 µM
CSc1nnc(Cc2ccc3c(c2)OCO3)o1	7.56 µM
Cc1cc(N2CCC(C)CC2)nc(-n2nc(C)cc2C)n1	0.83 µM
CCCCCCC1CC(C)(C(=O)CNc2nncs2)OC1=O (centres undefined)	20.3 µM (inactive)
COC(=O)c1ccc(Cn2cc(C(F)(F)F)cc([N+](=O)[O-])c2=O)cc1	1.7 µM
N#Cc1ccc(-c2ccc(OCC(=O)Nc3cccnc3)cc2)cc1	1.43 µM
O=C(COC(=O)CCc1c[nH]c2ccccc12)Nc1cc([N+](=O)[O-])ccc1Cl	3.17 µM
CCOc1ccc2nc(NC(=O)c3ccccn3)sc2c1	1.03 µM

SMILES	IC50
O=C(CN1CCC(NC(=O)c2cccc(F)c2)CC1)Nc1ccc(Br)cc1	31.9 µM (inactive)
COc1ccc(N=Cc2nc(-c3ccccc3)oc2OC(C)=O)cc1	17.4 µM (inactive)
Cc1cc(C(=O)NNc2ccc(Cl)cc2)no1	1.61 µM
CCN1CCN(c2ccc(S(=O)(=O)N3CCCCC3)cc2NC(=O)c2ccc([N+](=O)[O-])s2)CC1	7.39 µM
COc1ccc(CN=C(C#N)C2=C(O)c3ccccc3C2=O)cc1	8.56 µM
O=C(COC(=O)c1ccc([N+](=O)[O-])s1)Nc1ccc(Cl)cn1	2.37 µM
CCc1ccc(N2C(=O)NC(=O)/C(=C\C=C\c3ccco3)C2=O)cc1	10.9 µM (inactive)
N#Cc1ccc(COC(=O)CCc2c[nH]c3ccccc23)cc1	4.68 µM
Cc1cc(C(=O)N/N=C/c2ccc([N+](=O)[O-])o2)c(C)o1	5.51 µM
O=C(NN=C(Cc1ccccc1)Cc1ccccc1)c1ccncc1	0.35 µM
Cc1nn(-c2ccccc2)nc1C(=O)c1c(C)[nH]n(-c2ccccc2)c1=O	4.19 µM
CCCCn1c(=O)c(C(=O)Nc2nnc(C(C)C)s2)c(O)c2ccccc21	1.87 µM
CCOc1ccc(NC(=O)CCNC(=O)c2ccc(Br)cc2)cc1	13.8 µM (inactive)
Cc1c(CN2CCC(CO)(CCOc3ccccc3)CC2)[nH]c2ccc(Cl)cc12	15.9 µM (inactive)
O=C(Oc1ccccc1)c1ccc(COC(=O)c2cnccn2)cc1	10.7 µM (inactive)
CC(=O)Nc1ccc(OC(=O)c2ccc(Br)c([N+](=O)[O-])c2)cc1	8.96 µM
CCOc1cccc(CNCCc2c(C)[nH]c3ccc(OC(F)(F)F)cc23)c1O	9.79 µM
Cc1ccc2nc(-c3ccccn3)c(NC3CCCC3)n2c1	12.5 µM (inactive)
O=[N+]([O-])c1ccc2nc(-c3ccccn3)[nH]c2c1	18.3 µM (inactive)
O=C(N/N=C(\c1ccccc1)c1cccnc1)c1cccc(F)c1	3.88 µM
Cc1ccc(OCC(=O)N/N=C/c2ccc([N+](=O)[O-])o2)cc1	2.89 µM
Cc1cccc(N2CCN(Cc3ccc([N+](=O)[O-])o3)CC2)c1C	2 µM
Cc1cc(NC(=O)c2ccccc2F)n(-c2nc3ccccc3[nH]2)n1	7.5 µM

SMILES	IC50
CC1Cc2cc(/C=C3/SC(=S)NC3=O)ccc2O1 (centres undefined)	3.01 µM
O=C(Nc1ccc2c(c1)CCC2)c1ccc(Br)o1	7.88 µM
Cc1[nH]nc2c1C(c1ccc(-c3ccc(Cl)cc3)o1)C(C#N)=C(N)O2 (centres undefined)	2.24 µM
CC(C)(C)NC(=O)COC(=O)c1snc(C(=O)NC2CCCCC2)c1N	1.64 µM
CCOC(=O)c1ccc(N=C(CC)c2c(O)n(C)c(=O)n(C)c2=O)cc1	8.28 µM
CC(C)Cc1cc(C(=O)Nc2ccc(F)cc2F)no1	2.34 µM
Cc1ccc(CN2CC(C(=O)OCc3ccccc3Cl)CC2=O)cc1 (centres undefined)	8.11 µM
CN1C(=O)CC(Sc2ccccc2C(=O)O)C1=O (centres undefined)	23.6 µM (inactive)
COc1cc(C=O)ccc1OCCCCOc1ccccc1[N+](=O)[O-]	27.6 µM (inactive)
O=C(CCN1CCC(c2ccccc2)C1)c1ccccc1 (centres undefined)	33.1 µM (inactive)
CCN(CC)c1ccc2cc(C(=O)NCc3ccc(F)cc3)c(=N)oc2c1	1.62 µM
O=C(c1ccc(Cl)cc1)N1N=C(c2ccccn2)CC1(O)C(F)(F)F (centres undefined)	5.51 µM
O=C(CCN1CCN(C/C=C/c2ccccc2)CC1)Nc1ccc(Cl)cc1	18.8 µM (inactive)
COc1ccc(C(C)NC(=O)CCc2ccccc2)cc1 (centres undefined)	34.9 µM (inactive)
O=C(N/N=C/c1cccc2nccnc12)c1ccncc1	1.13 µM
Cc1ccc(C(=O)n2c(N)nc3ccccc32)cc1	16.6 µM (inactive)
CC(CCc1ccccc1)NC(=O)COC(=O)c1cccs1 (centres undefined)	13.4 µM (inactive)
O=[N+]([O-])c1cncc([N+](=O)[O-])c1Nc1cccc(O)c1	22.3 µM (inactive)
O=C(Nc1cccnc1)c1ccc(-c2ccc(Cl)cc2)o1	5.13 µM
Nc1scc(-c2ccncc2)c1Cl	14 µM (inactive)
CC1=C(/C=C/C(C)=N\NC(=O)c2ccncc2)C(C)(C)CCC1	1.15 µM
CC(C)CN1C(=O)CC(Sc2ccccc2C(=O)O)C1=O (centres undefined)	26.7 µM (inactive)
O=C(NN=C1C2CC3CC1CC(Cl)(C3)C2)c1cccs1	23.7 µM (inactive)

SMILES	IC50
CCOc1ccccc1NC(=O)COn1nnc2ccc(Cl)cc21	10.5 µM (inactive)
Cc1cc(Br)ccc1OCCCCN1CCCCC1	14.4 µM (inactive)
O=C(O)c1ccccc1C(=O)NNc1ccc(F)cc1	12.4 µM (inactive)
O=C(NNC(=O)c1ccccc1F)c1ccc(-c2ccc(Cl)cc2)o1	1.53 µM
O=c1oc(-c2cccs2)nc2c1cnn2-c1ccccc1	0.43 µM
CC(NCC(O)COCCC12CC3CC(CC(C3)C1)C2)c1ccccc1 (centres undefined)	7.88 µM
O=C(OCC(=O)N1CCc2ccccc2C1)c1cccc([N+](=O)[O-])c1	9.6 µM
O=C(Nc1nnc(-c2ccccc2Cl)o1)c1cccnc1	23.2 µM (inactive)
COc1cc(CNCCc2ccccc2)cc(Br)c1OCC(=O)Nc1ccccc1C	8.58 µM
COc1ccc(C(=O)CCS(=O)(=O)c2ccc(C)cc2)cc1OC	4.05 µM
C/C(=N\NC(=O)C(C)Oc1ccc([N+](=O)[O-])cc1)c1ccccn1 (centres undefined)	9.84 µM
CC(C)c1ccc(/C=N/NC(=O)c2ccccn2)cc1	12.9 µM (inactive)
Cc1cccc(OCC(=O)NNC(=O)c2cc3ccccc3oc2=O)c1	6.13 µM
O=C(CCC(=O)Nc1ccc(Cl)cc1Cl)N/N=C/c1ccc([N+](=O)[O-])o1	2.18 µM
O=C(Nc1ccccc1)c1nnsc1S(=O)c1ccc(Cl)cc1 (centres undefined)	0.34 µM
CCCCOC(=O)c1ccc(NC(=O)C2CCCO2)cc1 (centres undefined)	10 µM (inactive)
COC(=O)C1=C(C)N(Cc2ccccc2)C(=NCc2ccccc2)N[C@H]1c1cccc(F)c1	6.37 µM
CCCCCn1c(=O)c(C(=O)Nc2nc(CC(=O)OCC)cs2)c(O)c2ccccc21	2.39 µM
Cc1cc(=O)n2cccc(O)c2n1	6.1 µM
CCCOC(=O)c1ccc(NC(=O)c2ccccc2OC)cc1	18.1 µM (inactive)
CCOC(=O)COn1c2c(c3c4no[n+]([O-])c4ccc31)CCCC2	1.13 µM
CC(C)N1C(=O)NC(=O)C2(Cc3cc([N+](=O)[O-])ccc3N(C)C2c2ccccc2)C1=O (centres undefined)	14.7 µM (inactive)

— PubChem BioAssay AID488890 (Southern Research Specialized Biocontainment Screening …, 2010)
